From ChEMBL document CHEMBL5532678, “Comprehensive Insights that Targeting PIM for Cancer Therapy: Prospects and Obstacles” (J Med Chem, 2024)
Blank lines part the entries; values can stand above or below the molecule they belong to.

Key:
[1] = tested on: MCF7; assay: Antiproliferative activity against human MCF7 cells assessed as reduction in cell growth incubated for 48 hrs by MTT assay; format: functional, cell-based; settings: MCF7, 48 h
[2] = tested on: PC-3; assay: Anticancer activity against human PC-3 cells assessed as inhibition of cell growth incubated for 24 hrs by MTT assay; format: functional, cell-based; settings: PC-3, 24 h
[3] = tested on: HepG2; assay: Antiproliferative activity against human HepG2 cells assessed as inhibition of cell growth incubated for 72 hrs by MTT assay; format: functional, cell-based; settings: HepG2, 72 h
[4] = target: T1, Serine/threonine-protein kinase pim-1 (Homo sapiens, UniProt P11309); assay: Inhibition of human PIM1 by discoverX kinome scan assay
[5] = tested on: HCT-116; assay: Cytotoxicity against human HCT-116 cells assessed as reduction in cell viability incubated for 72 hrs by MTT assay; format: functional, cell-based; settings: HCT-116, 72 h
[6] = tested on: MCF7; assay: Cytotoxicity against human MCF7 cells assessed as reduction in cell growth incubated for 72 hrs by MTT assay; format: functional, cell-based; settings: MCF7, 72 h
[7] = tested on: HCT-116; assay: Antiproliferative activity against human HCT-116 cells assessed as inhibition of cell growth incubated for 24 hrs by MTT assay; format: functional, cell-based; settings: HCT-116, 24 h
[8] = target: T2, Serine/threonine-protein kinase pim-2 (Homo sapiens, UniProt Q9P1W9); assay: Inhibition of N-terminal GST-tagged full length human PIM2 (1 to 311 residues) expressed in baculovirus expression system using S6K2 peptide as substrate at 1 uM in presence of ATP by Mobility shift assay
[9] = target: T1, Serine/threonine-protein kinase pim-1; assay: Inhibition of human recombinant PIM1
[10] = target: T3, Prostaglandin G/H synthase 2 (Homo sapiens, UniProt P35354); assay: Inhibition of COX2 (unknown origin) fluorescence based analysis
T3 sequence (P35354 whole entry): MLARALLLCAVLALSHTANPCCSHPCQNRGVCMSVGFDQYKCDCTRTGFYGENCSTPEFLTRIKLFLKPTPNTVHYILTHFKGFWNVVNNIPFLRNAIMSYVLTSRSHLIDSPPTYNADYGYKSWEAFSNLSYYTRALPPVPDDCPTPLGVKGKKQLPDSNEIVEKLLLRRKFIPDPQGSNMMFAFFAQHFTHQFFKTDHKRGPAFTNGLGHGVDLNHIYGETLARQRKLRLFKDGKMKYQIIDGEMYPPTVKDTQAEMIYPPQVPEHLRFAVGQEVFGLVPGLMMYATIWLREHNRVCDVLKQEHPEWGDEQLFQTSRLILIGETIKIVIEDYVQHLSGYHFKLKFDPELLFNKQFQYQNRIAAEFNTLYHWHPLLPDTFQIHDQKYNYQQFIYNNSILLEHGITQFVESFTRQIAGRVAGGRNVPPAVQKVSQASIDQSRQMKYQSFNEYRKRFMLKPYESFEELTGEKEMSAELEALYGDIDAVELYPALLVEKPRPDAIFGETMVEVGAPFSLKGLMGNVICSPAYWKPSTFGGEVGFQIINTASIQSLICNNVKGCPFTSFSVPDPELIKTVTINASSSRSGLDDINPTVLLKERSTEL

[11] = target: T4, Polyunsaturated fatty acid 5-lipoxygenase (Homo sapiens, UniProt P09917); assay: Inhibition of 5-LOX in human PMNL cells; format: cell-based
T4 sequence (P09917 whole entry): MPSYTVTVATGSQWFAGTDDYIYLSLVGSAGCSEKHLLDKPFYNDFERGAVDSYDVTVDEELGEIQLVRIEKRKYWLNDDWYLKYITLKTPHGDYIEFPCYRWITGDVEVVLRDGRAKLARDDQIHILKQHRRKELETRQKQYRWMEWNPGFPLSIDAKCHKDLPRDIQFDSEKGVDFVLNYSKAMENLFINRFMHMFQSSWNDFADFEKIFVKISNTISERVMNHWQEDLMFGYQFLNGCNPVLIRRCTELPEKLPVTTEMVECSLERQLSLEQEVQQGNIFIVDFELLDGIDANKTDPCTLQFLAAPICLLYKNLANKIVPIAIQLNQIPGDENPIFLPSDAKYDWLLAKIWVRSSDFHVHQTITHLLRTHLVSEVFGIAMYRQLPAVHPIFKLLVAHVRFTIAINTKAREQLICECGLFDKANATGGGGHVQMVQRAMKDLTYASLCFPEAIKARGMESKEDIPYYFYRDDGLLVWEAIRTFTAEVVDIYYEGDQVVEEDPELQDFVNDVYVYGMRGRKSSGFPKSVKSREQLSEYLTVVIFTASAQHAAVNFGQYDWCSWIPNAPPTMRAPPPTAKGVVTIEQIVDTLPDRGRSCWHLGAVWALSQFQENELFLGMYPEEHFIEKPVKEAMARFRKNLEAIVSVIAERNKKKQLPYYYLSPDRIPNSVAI

[12] = target: Prostaglandin G/H synthase 1 (Homo sapiens, UniProt P23219); assay: Inhibition of COX1 (unknown origin) fluorescence based analysis
[13] = Inhibition of PI3K (unknown origin); set-up: species or system Homo sapiens
[14] = target: Serine/threonine-protein kinase mTOR (Homo sapiens, UniProt P42345); assay: Inhibition of mTOR (unknown origin)
[15] = target: T1, Serine/threonine-protein kinase pim-1; assay: Inhibition of human PIM1 using KKRNRTLTK as substrate in presence of [gamma-33P]-ATP by hotspot kinase assay
[16] = tested on: MCF7; assay: Cytotoxicity against human MCF7 cells assessed as reduction in cell viability by MTT assay; format: functional, cell-based
[17] = target: T5, Serine/threonine-protein kinase pim-3 (Homo sapiens, UniProt Q86V86); assay: Inhibition of N-terminal GST-tagged full length human PIM3 (1 to 326 residues) expressed in baculovirus expression system using S6K2 peptide as substrate at 1 uM in presence of ATP by Mobility shift assay
[18] = target: T2, Serine/threonine-protein kinase pim-2; assay: Inhibition of human full length-His6 tagged PIM2 (1 to 311 residues) expressed in Escherichia coli BL21 (DE3) assessed as inhibition constant using RSRHSSYPAGT as peptide substrate incubated for 10 mins in presence of [gamma-32P]ATP by radiometric scintillation assay
[19] = target: T1, Serine/threonine-protein kinase pim-1; assay: Inhibition of human full length-His6 tagged PIM1 (1 to 312 residues) expressed in Escherichia coli BL21 (DE3) using RSRHSSYPAGT as peptide substrate incubated for 10 mins in presence of [gamma-32P]ATP by radiometric scintillation assay
[20] = target: T5, Serine/threonine-protein kinase pim-3
[21] = target: T2, Serine/threonine-protein kinase pim-2
[22] = target: T1, Serine/threonine-protein kinase pim-1
[23] = target: T2, Serine/threonine-protein kinase pim-2; assay: Inhibition of PIM2 (unknown origin) by FRET based Z-LYTE kinase assay
[24] = target: T1, Serine/threonine-protein kinase pim-1; assay: Inhibition of PIM1 (unknown origin) by FRET based Z-LYTE kinase assay
[25] = target: T5, Serine/threonine-protein kinase pim-3; assay: Inhibition of PIM3 (unknown origin) by FRET based Z-LYTE kinase assay

IC50 [1]: 13.4 µM
IC50 [2]: 27.6 µM
IC50 [3]: 14.6 µM
IC50 [4]: 9.76 µM
Compound: N#Cc1c(-c2ccccc2O)cc(-c2ccc(N3C(=O)c4ccccc4C3=O)cc2)nc1N

Compound: Cc1nc2sc3c(c2c(C)c1Br)NC(c1ccccc1Cl)NC3=O (stereo not drawn)
IC50 [5]: 18.6 µM
IC50 [6]: 23.8 µM

IC50 [1]: 0.22 µM
IC50 [7]: 0.37 µM
Compound: Cc1nc2sc3c(c2c(C)c1Br)NC(c1ccc(O)c(O)c1)NC3=O (stereo not drawn)

IC50 [8]: 0.976 µM
IC50 [9]: 7.21 µM
IC50 [10]: 0.037 µM
IC50 [11]: 2.81 µM
IC50 [12]: 14 µM
Compound: COc1ccc(N2C(=O)C(CC(=O)O)S/C2=N/N=C/c2c(C)ccc(C(C)C)c2O)cc1 (stereo not drawn)

IC50 [13]: 0.0168 µM
IC50 [14]: > 10 µM
Compound: COc1ncc2cc1NS(=O)(=O)c1cccc(c1)C(=O)NCc1cccc(c1)-c1ncnc3c1SC2=C3

IC50 [15]: 0.344 µM
Compound: N#Cc1c(-c2ccccc2)cc(-c2ccccc2)nc1OCCCC(=O)NO

IC50 [4]: 35.7 µM
Compound: Cc1nc2sc(C(=O)Nc3ccc(F)c(Cl)c3)c(N)c2c(C)c1Br
IC50 [16]: 75.9 µM

IC50 [17]: 0.36 µM
IC50 [18]: 0.22 µM
IC50 [19]: 0.47 µM
Compound: COc1ccc(/C=C/C(/C=C2/C(=O)Nc3cc(Br)ccc32)=N/O)cc1

IC50 [15]: 0.0046 µM
Compound: Fc1cncc(-c2ccc3[nH]c4ncnc(N[C@H]5CC[C@H](N6CCOCC6)CC5)c4c3c2)c1

IC50 [1]: 0.46 µM
IC50 [7]: 0.36 µM
Compound: COc1cc(C2NC(=O)c3sc4nc(C)c(Br)c(C)c4c3N2)ccc1O (stereo not drawn)

IC50 [20]: 0.003 µM
IC50 [21]: 0.002 µM
IC50 [22]: 0.002 µM
Compound: CC(C)n1c(C2CCNCC2)nc2c([N+](=O)[O-])c(Br)c(Br)cc21 [DAPOLSERTIB]

IC50 [8]: 1.38 µM
IC50 [9]: 2.96 µM
IC50 [10]: 0.091 µM
IC50 [11]: 3.54 µM
IC50 [12]: 9.4 µM
Compound: Cc1ccc(C(C)C)c(O)c1/C=N/N=C1NC(=O)C(CC(=O)O)S1 (stereo not drawn)

IC50 [15]: 9.39 µM
Compound: CCc1ccc(NC(=O)c2sc3nc(-c4ccc(OC)c(OC)c4)cc(-c4ccc(O)c(O)c4)c3c2N)cc1

IC50 [23]: 0.31 µM
IC50 [24]: 0.42 µM
IC50 [25]: 0.17 µM
Compound: CCOc1cc(/C=C2\SC(=S)NC2=O)ccc1O

IC50 [19]: 0.0015 µM
Compound: CN1CCN(C[C@@H](NC(=O)CC2CNC(=O)c3cc(-c4cccc(Cl)c4)cn32)C2CCCCC2)CC1 (stereo partly drawn)

IC50 [4]: 43 µM
Compound: N#Cc1nnc2c3c(-c4ccccc4Cl)c(C#N)c(=O)[nH]c3nn2c1N
